Test results as given in patent US20110230367A1, “Amphiphilic Peptides Promoting Production of Target miRNA and Method of Regulating Production of Target miRNA” (SNU R&DB FOUNDATION, priority 2009, published 2011).
“Also recorded” adds a separate entry of the source. Like-named read-outs stand apart in the source and are kept apart here.

Key:
HBV (hairpin RNA) = assay: Dissociation constant by competitive fluorescence anisotropy with rhodamine-rev peptide probe; format: binding; settings: Table 6
Protocol: (§1) The binding affinity between the peptide synthesized in <Example 1> and pre-miRNA from <Example 2> were measured by fluorescence anisotropy using competitive binding method. A rev peptide with rhodamine attached at the N-terminal was used as a fluorescent probe and LS-55 luminescence spectrometer from Perkin-Elmer was use for analysis. A constant temperature of 20° C. was maintained by a water bath. The fluorescent intensity was measured by of 200 nM of rhodamine-rev peptide was measured with an excitation wavelength at 550 nm (band path 10 nm) and detection at 580 nm (band path 10 nm). The integration time […]. Each experimental value is the mean value of 5 measurements. A 20 mM of HEPES{4-(2-hydroxyethyl)-1-piperazineethanesulfonic acid} buffer (pH 7.5) containing 140 mM NaCl, 5 mM KCl and 1 mM MgCl2 was used for measuring the dissociation constant. The dissociation constant was determined according to the Mathematical Formula 1 and using Kaledia graph.
(§2) A and Ao are the fluorescence anistropy in the presence or absence of RNA, whereas ΔA is the difference between these two values. [RNA]0 and [Rh-rev]0 are initial concentrations of RNA and rev peptide binding with rhodamine.
(§3) According the method described in <Example 3>, the dissociation constant between second generation peptide and 2 pre-miRNAs synthesized from <Example 2> was determined using fluorescent polarization detection method and fluorescent probe molecule.

pre-miR24-1 = assay: as above; format: binding; settings: Table 6; for Discrimination ratio pre-miR24-1 (in parenthesis): Kd against other RNA/Kd against target miRNA
Protocol: as §1, §2, §3

IRES (hairpin RNA) = assay: as above; format: binding; settings: Table 6
Protocol: as §1, §2, §3

pre-let7a-1 = assay: as above; format: binding; settings: for Discrimination ratio pre-let7a-1 (in parenthesis): Kd against other RNA (HBV, IRES, other miRNAs)/Kd against target miRNA
Protocol: as §1, §2, §3

pre-miR16-1 = assay: as above; format: binding; settings: for Discrimination ratio pre-miR16-1 (in parenthesis): Kd against other RNA/Kd against target miRNA
Protocol: as §1, §2, §3

[1] = system: mature miR16-1 in HCT116 cells; assay: Production of mature miRNA in HCT116 cells by northern blotting; format: cell-based; settings: 2 μM peptide, 3 hrs, FIG. 4
Protocol: The HCT116 cell was purchased from American Type Culture Collection (ATCC) and was cultured in RPMI1640 medium at 37° C., under 5% CO2. Total RNA was extracted using Trizol reagent (Invitrogen) according to the manufactures recommended protocol.
The change in RNA amount was analyzed by culturing the cells with 2 μM concentration of peptide 2b or peptide 2c and with lipofectamine.
HCT116 cells were treated with 2 μM of peptide 2b, 2c, 1e or 0.2 μg/ml of doxorubicin for 3 hrs before analyzing the production of mature miRNA in total RNA using northern blotting. The 18S rRNA band intensity was used as the loading control. […] Peptide 1e was used as a negative control. Decade marker (Ambion) and 10˜20 μg of total RNA were separated by using 12.5% polyacrylamide gel containing 7M urea in 20 mM of 3-(N-morpholino)propanesulfonic acid (MOPS)-NaOH(pH 7.0) buffer at 350V for 2 hrs. RNA blotting was performed by chemical cross-linking method. Each of the separated RNA was transferred with the neutral nylon membrane (Hybond NX, Amersham/Pharmacia) and crosslinked to the membrane using 1-ethyl-3-(3-dimethylaminopropyl)carbodiimide (EDC). The membrane was prehybridized with the hybridization buffer (Clontech, CA, USA) containing 50 μl of 10 mg/ml of salmon sperm DNA. Next, the isotope labeled probe DNA which is complementary to the miRNA sequence was hybridized for 2 hrs in the same buffer condition.
The probe was isotope labeled with 25 μCi of [γ-^32P] ATP (New England Biolabs) and 5 units of polynucleotide kinase (New England Biolabs). The probe was ethanol precipitated and dissolved in 50 μl of DEPC treated water for use. The membrane was washed twice for 30 min with 200 ml of wash buffer containing 0.3 M NaCl, 0.03 M sodium citrate and 0.05% sodium dodecyl sulfate (SDS)(pH 7.0), then washed twice for 15 min with 200 ml of wash buffer containing 0.015 M NaCl, 0.0015 M sodium citrate and 0.1% SDS(pH 7.0). The membrane was exposed on the phosphorimager screen and each of the band intensity was detected by FLA-3000 and analyzed by using MultiGauge Ver. 3.0 software (Fuji Photo).

[2] = Table 5, second generation peptides, read-out: Kd value against pre-let7a-1
[3] = Table 6, read-out: Kd pre-let7a-1
[4] = Table 5, second generation peptides, read-out: Kd value against pre-miR16-1
[5] = Table 6, read-out: Kd pre-miR16-1

| Sequence | Kd (HBV (hairpin RNA)) [nM] | Kd (pre-miR24-1) [nM] | Discrimination ratio pre-miR24-1 (in parenthesis) (pre-miR24-1) | Kd (IRES (hairpin RNA)) [nM] | Kd (pre-let7a-1; [2]) [nM] | Discrimination ratio pre-let7a-1 (in parenthesis) (pre-let7a-1; Table 6) | Kd (pre-let7a-1; [3]) [nM] | binding with pre-miR16-1 (pre-miR16-1) | Kd (pre-miR16-1; [4]) [nM] | Discrimination ratio pre-miR16-1 (in parenthesis) (pre-miR16-1; Table 6) | Kd (pre-miR16-1; [5]) [nM] | binding with pre-let7a-1 (pre-let7a-1) | discrimination ratio for pre-let7a-1 (pre-let7a-1; mean Kd against all hairpin pre-miRNA/Kd against target pre-miRNA) | level of mature miR16-1 [1] |
| --- | --- | --- | --- | --- | --- | --- | --- | --- | --- | --- | --- | --- | --- | --- |
| WKKLLKLLKKWLKLAG [Peptide 2c, Ac-WKKLLKLLKKWLKLAG, 14] | 0.46 | 0.88 | 0.41 | 0.46 | 0.15 | 2.8 | 0.15 | first and second strongest binding | 0.27 | 1.4 | 0.27 | – | – | – |
| WKKLLKWLKKLLKLAG [Peptide 2b, Ac-WKKLLKWLKKLLKLAG, 13] | 0.9 | 0.43 | 1.5 | 1 | 0.067 | 11 | 0.067 | first and second strongest binding | 0.22 | 1.1 | 0.22 | strong binding; also recorded: strongest binding | 11 | increased |
